Literature values as cited in patent US20250375409A1, “Treatment of REM Behavior Disorder” (Vanda Pharmaceuticals Inc., priority 2024, published 2025).

Columns and labels:
[1] = following an oral dose; large first pass effect

mean systemic availability [1]: less than 2%
SMILES: CCC(=O)NCC[C@@H]1CCc2ccc3c(c21)CCO3 [ramelteon]
RBD outcome in open label trial (Esaki et al., 12 patients with idiopathic RBD, 8 mg given 30 minutes before bedtime): trend towards improvement
RBD symptoms, including the RBD severity scale (RBDSS) (Nomura et al. 2013, 8 mg, two patients with RBD in association with Parkinsonian syndromes): improvement of their RBD symptoms
RBD outcome in patients with Parkinson's disease (patients with Parkinson's disease, with or without RBD, after treatment): statistically significant RBD improvement
